Data set [1] can be described thus: Stability in formulation, saline and phosphate buffer. Type of data set: physicochemical. The following applies: up to 4 h at ambient temperature. The method, then: […] Analytical HPLC was performed using an XBridge C18 column (3.5 μm, 4.6 mm × 150 mm) under isocratic conditions with a mobile phase of MeCN/H2O (35:65, v/v) containing 0.1% triethylamine (TEA) at a flow rate of 1.0 mL/min.

A short description of data set [2]: Serum stability, rat serum. In kind it is in vitro ADME. The following applies: 60 min, 37 °C. The method, then:
(§1) The stability of [^18F]TAAR1-2203 was assessed in mouse, rat, NHP, and human serum. Aliquots (400 µL) of serum were preincubated at 37 °C for 5 min, followed by the addition of [^18F]TAAR1-2203 (20 µL, 300 µCi/11.1 MBq). After 60 min, 200 µL of each sample was collected, quenched with ice-cold MeCN (200 µL), centrifuged at 10,000 g for 5 min, and analyzed by radio-HPLC (XBridge C18 column, 3.5 μm, 4.6 mm × 150 mm; CH3CN/H2O 35:65 with 0.1% TEA; flow rate 1.0 mL/min). Experiments in PBS served as negative controls, and benfluorex hydrochloride was used as a positive control.

Data set [3] is described as follows: Serum stability, human serum. In kind it is in vitro ADME. The settings on record: 60 min, 37 °C. The method, then: as §1
Data set [4] in a line: Microsomal stability, mouse liver microsomes. In kind it is in vitro ADME. The settings on record: after 60 min, 37 °C, printed as rodent microsomes. The method, then:
(§2) Microsomal stability of [^18F]TAAR1-2203 was evaluated using mouse, rat, NHP, and human liver microsomes. Potassium phosphate buffer (340 µL, 0.5 M, pH 7.4) was combined with NADPH regenerating solution (40 µL, 10 mM). Radiotracer solution (10 µL, 150 µCi, 5.5 MBq) was added, and the mixture was preincubated at 37 °C for 5 min. Liver microsomes (20 µL) were subsequently added. Incubations were carried out at 37 °C with gentle shaking. At 30 and 60 min, 200 µL aliquots were quenched with ice-cold MeCN (200 µL), centrifuged at 10,000 g for 5 min, and analyzed using an AR-2000 radio-TLC imaging scanner (Eckert & Ziegler).

Data set [5] can be described thus: Microsomal stability, rat liver microsomes. Type of data set: in vitro ADME. The following applies: after 60 min, 37 °C, printed as rodent microsomes. The method, then: as §2
A general note: Liver microsomes are vesicles of endoplasmic reticulum, rich in cytochrome P450 enzymes.

A short description of data set [6]: Microsomal stability, human liver microsomes. In kind it is in vitro ADME. The following applies: after 60 min, 37 °C. The method, then:
as §2

Data set [7] is described as follows: Plasma protein binding of tracer, rat plasma. Type of data set: in vitro ADME. The settings on record: radiotracer, 10 min incubation, ultrafiltration, read-out: Free fraction in rat plasma. The method, then:
Plasma protein binding of [^18F]TAAR1-2203 was determined in mouse, rat, NHP, and human plasma. Plasma samples (150 µL, n = 3) were preincubated at 37 °C for 5 min before addition of [^18F]TAAR1-2203 (10 µCi, 0.37 MBq). After 10 min of incubation, 300 µL of ice-cold PBS were added. Samples (300 µL) were then transferred onto Amicon® centrifugal filter units (10 kDa cut-off) and centrifuged at 2100 g for 15 min at 4 °C. Filtrates were washed with 300 µL PBS and centrifuged again. Radioactivity in the filtrate and protein-bound fractions was measured using a Packard Cobra 5002/5003 gamma counter.

For data set [8], the target named is T1, TAAR1 (Mus musculus, UniProt Q923Y8).
T1 construct: peripheral organs that express endogenous TAAR1; tissue Charles River (wild-type); F. Hoffmann-La Roche Ltd. (TAAR1 knock-out and matched controls); host or cells: mouse pancreas, kidney, liver, brain
Kind of data set: In vitro autoradiography, mouse pancreas and kidney sections. Type of data set: binding, CD1 mice. The following applies: tracer 5–8 nM; blockade with RO5333943 or RO5425754 at 10 µM. How it is done:
(§3) In vitro autoradiography experiments with [^18F]TAAR1-2203 were conducted on mouse and rat pancreas, kidney and brain tissue sections, respectively. Tissue Sect. (20 μm) were thawed on ice for 10 min and preincubated in assay buffer (50 mM Tris, pH 7.4) for 10 min. Subsequently, sections were incubated with [^18F]TAAR1-2203 for 40 min at ambient temperature. For blocking studies, structurally distinct TAAR1 agonists, RO5333943 or RO5425754, were added in excess to the assay buffer at a final concentration of 10 µM. After incubation, sections were washed in assay buffer for 2 min on ice and dipped briefly in water (2 × 5 s), followed by drying and exposure to a phosphor imager plate for 60 min. Imager plates were scanned on an Amersham Typhoon analyzer system, and images were analyzed using ImageQuant TL 8.1, as previously reported.

In data set [9] the target is T2, TAAR1 (Rattus norvegicus, UniProt Q923Y9).
T2 construct: peripheral organs that express endogenous TAAR1; tissue Charles River; host or cells: rat pancreas, kidney
Kind of data set: In vitro autoradiography, rat pancreas and kidney sections. Type of data set: binding, Sprague Dawley rats. The following applies: tracer 5–8 nM; blockade with RO5333943 or RO5425754 at 10 µM. The method, then: as §3

The target in data set [10] is T1, TAAR1. In words: In vitro autoradiography, TAAR1 knockout vs wild-type mouse tissue sections. Type of data set: binding. The method, then:
as §3

Data set [11] can be described thus: Ex vivo radiometabolite analysis. In kind it is in vivo, CD1 mice. The following applies: 30 min post-injection, n = 3. The method, then: Female CD1 mice (20 weeks old, n = 3) were injected with [^18F]TAAR1-2203 (100 µCi, 3.7 MBq) and sacrificed 30 min post-injection. Brain, pancreas, and plasma samples were collected. Organs were homogenized in ice-cold acetonitrile (CH3CN). Plasma was obtained by centrifugation at 1400 rpm for 5 min at 4 °C, and proteins were precipitated with repeated CH3CN extraction until clear supernatants were obtained. Analytical samples were spiked with non-radioactive TAAR1-2203 and analyzed by radio-HPLC (XBridge C18 column; CH3CN/H₂O 35:65, with 0.1% TEA; flow rate 1.0 mL/min). Parent tracer fractions were determined as the percentage of intact [^18F]TAAR1-2203 relative to total detected radioactivity.

Data set [12] addresses T1, TAAR1. Kind of data set: Dynamic PET imaging, baseline vs blockade. Type of data set: in vivo, CD1 mice. How it is done: Dynamic PET imaging was performed for 60 min in female C57BL/6 mice, as well as in TAAR1 knock-out mice and respective controls, under 1–2% (v/v) isoflurane anaesthesia as previously reported. [^18F]TAAR1-2203 (1.5 MBq in 100 µL saline) was administered via tail vein injection. For blocking studies, TAAR1 agonist RO5425754 (4 mg/kg) was injected 5 min prior to radiotracer administration. Dynamic PET scans were acquired using a G8 PET/CT scanner (Sofie Biosciences, Culver, CA, USA) and analyzed with PMOD software (PMOD Technologies Ltd., Zurich, Switzerland). Radioactivity was decay-corrected and expressed as standardized uptake values (SUVs), normalized to body weight and injected dose.

The mark [13] stands for this setting: PET, blockade with RO5425754 4 mg/kg.

The structures appear in SMILES notation.

T1 sequence (Q923Y8 whole entry): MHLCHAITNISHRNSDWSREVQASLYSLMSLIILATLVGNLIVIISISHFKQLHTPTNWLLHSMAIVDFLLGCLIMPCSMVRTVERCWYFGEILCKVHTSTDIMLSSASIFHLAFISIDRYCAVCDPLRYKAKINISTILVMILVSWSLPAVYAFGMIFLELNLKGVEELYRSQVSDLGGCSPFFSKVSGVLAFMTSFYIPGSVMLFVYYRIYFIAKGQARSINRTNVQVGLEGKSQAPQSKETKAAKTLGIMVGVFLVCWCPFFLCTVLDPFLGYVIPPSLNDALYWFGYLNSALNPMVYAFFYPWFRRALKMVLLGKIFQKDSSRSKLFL
T2 sequence (Q923Y9 whole entry): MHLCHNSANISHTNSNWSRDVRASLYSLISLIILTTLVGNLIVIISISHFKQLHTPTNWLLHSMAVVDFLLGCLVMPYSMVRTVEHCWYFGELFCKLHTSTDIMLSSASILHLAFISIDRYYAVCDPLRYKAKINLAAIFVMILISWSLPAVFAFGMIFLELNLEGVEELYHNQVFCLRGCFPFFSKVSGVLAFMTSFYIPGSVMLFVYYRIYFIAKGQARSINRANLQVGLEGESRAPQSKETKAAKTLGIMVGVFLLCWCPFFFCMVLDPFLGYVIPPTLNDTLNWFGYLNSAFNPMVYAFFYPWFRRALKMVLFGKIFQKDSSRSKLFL

For `Cc1c([18F])cccc1[C@H]1COC(N)=N1` [[^18F]TAAR1-2203], the Stability in formulation result in data set [1] is given as “no detectable degradation”. Further, the “Intact parent tracer in rat serum” value in data set [2] is more than 99%. For the same compound, the “Intact parent tracer in human serum” value in data set [3] is given as more than 99%. The “Intact tracer in mouse liver microsomes” value in data set [4] is reported as more than 98%. The “Intact tracer in rat liver microsomes” value in data set [5] was more than 98%. In addition, the “Intact tracer in human liver microsomes” value in data set [6] was more than 99%. In addition, in [7], the fraction unbound at 10 min, 2.47 MBq/mL was approximately 0.6. At TAAR1 [8], the “Reduction of tracer binding, mouse kidney” value was “greater than 70%” and the “Reduction of tracer binding, mouse pancreas” value is “more than 50%”. For the same compound, at TAAR1 [9], the “Reduction of tracer binding, rat kidney” value is “greater than 70%” and the “Reduction of tracer binding, rat pancreas” value is given as “more than 50%”. Further, the “Tracer signal in brain tissue, TAAR1 KO vs WT mice” value on TAAR1 [10] was “comparably low in both WT and KO animals”. Further, at TAAR1 [10] (n = 6, p < 0.001), the “Change in tracer binding in kidney of TAAR1 KO vs WT mice” value is −50% and the “Change in tracer binding in pancreas of TAAR1 KO vs WT mice” value is −32%. In data set [11], the “Parent tracer fraction in brain” value is “exceeded 80%”, the “Parent tracer fraction in pancreas” value is recorded as “exceeded 80%” and the “Parent tracer fraction in plasma” value is “exceeded 80%”. Also, the “Specific binding in the CNS” value on TAAR1 [12] (PET imaging and in vitro autoradiography) is given as “no specific TAAR1 binding was observed”. For the same compound, at TAAR1 [12] (setting [13]), the “Tracer uptake in kidney (AUC 0–60 min), blockade vs baseline” value is “significant reduction” and the “Tracer uptake in pancreas (AUC 0–60 min), blockade vs baseline” value is recorded as “significant reduction”.

The values above are taken from publication PMC12920416, “Preclinical development of [^18F]TAAR1-2203 as a PET radioligand for imaging TAAR1 expression and receptor occupancy” (European Journal of Nuclear Medicine and Molecular Imaging, 2025).
